Measured values taken from PubChem BioAssay (NCI).
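Growth conditions: 96-well plates. Treatment: test compound, 48 hours, 5 concentrations. Analysis: linear interpolation between bracketing concentrations; unreached endpoints set to highest concentration. TGI: total growth inhibition.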

How the values were obtained:
Test in all cases: growth of human tumour cells (NCI), 48 h
EKVX NSCLC = test system: EKVX NSCLC
K-562 leukemia = test system: K-562 leukemia
SNB-19 CNS = test system: SNB-19 CNS
MDA-MB-231 breast = test system: MDA-MB-231 breast
CAKI-1 renal = test system: CAKI-1 renal
SW-620 colon = test system: SW-620 colon
NCI-H226 lung = test system: NCI-H226 lung
TK-10 renal = test system: TK-10 renal
MALME-3M melanoma = test system: MALME-3M melanoma
OVCAR-5 ovarian = test system: OVCAR-5 ovarian
NCI-H460 lung = test system: NCI-H460 lung
MOLT-4 leukemia = test system: MOLT-4 leukemia
OVCAR-4 ovarian = test system: OVCAR-4 ovarian
SNB-75 CNS = test system: SNB-75 CNS
NCI/ADR-RES ovarian = test system: NCI/ADR-RES ovarian
SR leukemia = test system: SR leukemia
SF-539 CNS = test system: SF-539 CNS
786-0 renal = test system: 786-0 renal
HCT-116 colon = test system: HCT-116 colon
UO-31 renal = test system: UO-31 renal
COLO 205 colon = test system: COLO 205 colon
HOP-92 NSCLC = test system: HOP-92 NSCLC
HOP-62 NSCLC = test system: HOP-62 NSCLC
SK-OV-3 ovarian = test system: SK-OV-3 ovarian
MCF7 breast = test system: MCF7 breast
U251 CNS = test system: U251 CNS
OVCAR-8 ovarian = test system: OVCAR-8 ovarian
IGROV1 ovarian = test system: IGROV1 ovarian
NCI-H522 lung = test system: NCI-H522 lung
OVCAR-3 ovarian = test system: OVCAR-3 ovarian
SN12C renal = test system: SN12C renal
UACC-62 melanoma = test system: UACC-62 melanoma
SF-268 CNS = test system: SF-268 CNS
CCRF-CEM leukemia = test system: CCRF-CEM leukemia
A549 NSCLC = test system: A549 NSCLC
DU-145 prostate = test system: DU-145 prostate
SK-MEL-28 melanoma = test system: SK-MEL-28 melanoma
KM12 colon = test system: KM12 colon
HCT-15 colon = test system: HCT-15 colon
MDA-MB-435 = test system: MDA-MB-435
SF-295 CNS = test system: SF-295 CNS
RPMI-8226 leukemia = test system: RPMI-8226 leukemia
HCC-2998 colon = test system: HCC-2998 colon
HL-60(TB) leukemia = test system: HL-60(TB) leukemia
LOX IMVI melanoma = test system: LOX IMVI melanoma
ACHN renal = test system: ACHN renal
SK-MEL-2 melanoma = test system: SK-MEL-2 melanoma
BT-549 breast = test system: BT-549 breast
MDA-N = test system: MDA-N
M14 melanoma = test system: M14 melanoma
HT29 colon = test system: HT29 colon
NCI-H23 lung = test system: NCI-H23 lung
HS 578T breast = test system: HS 578T breast
PC-3 prostate = test system: PC-3 prostate
UACC-257 melanoma = test system: UACC-257 melanoma
RXF 393 renal = test system: RXF 393 renal
A498 renal = test system: A498 renal
T-47D breast = test system: T-47D breast
SK-MEL-5 melanoma = test system: SK-MEL-5 melanoma

`O=C(CNc1c(Cl)cccc1Cl)NC1C=Cc2ccc(S(=O)(=O)Nc3c(Cl)cccc3Cl)cc2C1=O` (configuration not stated) was tested, and the TGI (EKVX NSCLC) was over 100 µM, the TGI (K-562 leukemia) was over 100 µM and the TGI (SNB-19 CNS) was over 100 µM. The TGI (MDA-MB-231 breast) was over 100 µM, the TGI (CAKI-1 renal) was over 100 µM and the TGI (SW-620 colon) was over 100 µM. For the same molecule, the TGI (NCI-H226 lung) was over 100 µM, the TGI (TK-10 renal) was over 100 µM and the TGI (MALME-3M melanoma) was over 100 µM. For the same molecule, the TGI (OVCAR-5 ovarian) was over 100 µM, the TGI (NCI-H460 lung) was over 100 µM and the TGI (MOLT-4 leukemia) was over 100 µM. For the same molecule, the TGI (OVCAR-4 ovarian) was over 100 µM, the TGI (SNB-75 CNS) was over 100 µM and the TGI (NCI/ADR-RES ovarian) was over 100 µM. For the same molecule, the TGI (SR leukemia) was over 100 µM, the TGI (SF-539 CNS) was over 100 µM and the TGI (786-0 renal) was over 100 µM. The TGI (HCT-116 colon) was over 100 µM, the TGI (UO-31 renal) was over 100 µM and the TGI (COLO 205 colon) was over 100 µM. For the same molecule, the TGI (HOP-92 NSCLC) was over 100 µM, the TGI (HOP-62 NSCLC) was over 100 µM and the TGI (SK-OV-3 ovarian) was over 100 µM. It also gave a TGI (MCF7 breast) of over 100 µM, a TGI (U251 CNS) of over 100 µM and a TGI (OVCAR-8 ovarian) of over 100 µM. It also gave a TGI (IGROV1 ovarian) of over 100 µM, a TGI (NCI-H522 lung) of over 100 µM and a TGI (OVCAR-3 ovarian) of over 100 µM. For the same molecule, the TGI (SN12C renal) was over 100 µM, the TGI (UACC-62 melanoma) was over 100 µM and the TGI (SF-268 CNS) was over 100 µM. The TGI (CCRF-CEM leukemia) was over 100 µM, the TGI (A549 NSCLC) was over 100 µM and the TGI (DU-145 prostate) was over 100 µM. The TGI (SK-MEL-28 melanoma) was over 100 µM, the TGI (KM12 colon) was over 100 µM and the TGI (HCT-15 colon) was over 100 µM. It also gave a TGI (MDA-MB-435) of over 100 µM, a TGI (SF-295 CNS) of over 100 µM and a TGI (RPMI-8226 leukemia) of over 100 µM. It also gave a TGI (HCC-2998 colon) of over 100 µM, a TGI (HL-60(TB) leukemia) of over 100 µM and a TGI (LOX IMVI melanoma) of over 100 µM. It also gave a TGI (ACHN renal) of over 100 µM, a TGI (SK-MEL-2 melanoma) of over 100 µM and a TGI (BT-549 breast) of over 100 µM. For the same molecule, the TGI (MDA-N) was over 100 µM, the TGI (M14 melanoma) was over 100 µM and the TGI (HT29 colon) was over 100 µM. The TGI (NCI-H23 lung) was over 100 µM, the TGI (HS 578T breast) was over 100 µM and the TGI (PC-3 prostate) was over 100 µM. It also gave a TGI (UACC-257 melanoma) of over 100 µM.
Work on `CCOC(CNCCC(=O)OC)OCC` yielded a TGI (EKVX NSCLC) of over 10 µM, a TGI (K-562 leukemia) of over 10 µM and a TGI (SNB-19 CNS) of over 10 µM. For the same molecule, the TGI (MDA-MB-231 breast) was over 10 µM, the TGI (CAKI-1 renal) was over 10 µM and the TGI (SW-620 colon) was over 10 µM. It also gave a TGI (NCI-H226 lung) of over 10 µM, a TGI (TK-10 renal) of over 10 µM and a TGI (MALME-3M melanoma) of over 10 µM. It also gave a TGI (RXF 393 renal) of over 10 µM, a TGI (NCI-H460 lung) of over 10 µM and a TGI (MOLT-4 leukemia) of over 10 µM. It also gave a TGI (OVCAR-4 ovarian) of over 10 µM, a TGI (SNB-75 CNS) of over 10 µM and a TGI (NCI/ADR-RES ovarian) of over 10 µM. It also gave a TGI (A498 renal) of over 10 µM, a TGI (SR leukemia) of over 10 µM and a TGI (SF-539 CNS) of over 10 µM. For the same molecule, the TGI (786-0 renal) was over 10 µM, the TGI (HCT-116 colon) was over 10 µM and the TGI (UO-31 renal) was over 10 µM. It also gave a TGI (COLO 205 colon) of over 10 µM, a TGI (HOP-92 NSCLC) of over 10 µM and a TGI (HOP-62 NSCLC) of over 10 µM. The TGI (SK-OV-3 ovarian) was over 10 µM, the TGI (MCF7 breast) was over 10 µM and the TGI (U251 CNS) was over 10 µM. The TGI (OVCAR-8 ovarian) was over 10 µM, the TGI (IGROV1 ovarian) was over 10 µM and the TGI (NCI-H522 lung) was over 10 µM. For the same molecule, the TGI (OVCAR-3 ovarian) was over 10 µM, the TGI (SN12C renal) was over 10 µM and the TGI (UACC-62 melanoma) was over 10 µM. It also gave a TGI (T-47D breast) of over 10 µM, a TGI (SF-268 CNS) of over 10 µM and a TGI (CCRF-CEM leukemia) of over 10 µM. The TGI (A549 NSCLC) was over 10 µM, the TGI (DU-145 prostate) was over 10 µM and the TGI (SK-MEL-28 melanoma) was over 10 µM. For the same molecule, the TGI (KM12 colon) was over 10 µM, the TGI (HCT-15 colon) was over 10 µM and the TGI (MDA-MB-435) was over 10 µM. The TGI (SK-MEL-5 melanoma) was over 10 µM, the TGI (SF-295 CNS) was over 10 µM and the TGI (RPMI-8226 leukemia) was over 10 µM. It also gave a TGI (HCC-2998 colon) of over 10 µM, a TGI (HL-60(TB) leukemia) of over 10 µM and a TGI (LOX IMVI melanoma) of over 10 µM. The TGI (ACHN renal) was over 10 µM, the TGI (SK-MEL-2 melanoma) was over 10 µM and the TGI (MDA-N) was over 10 µM. For the same molecule, the TGI (M14 melanoma) was over 10 µM, the TGI (HT29 colon) was over 10 µM and the TGI (NCI-H23 lung) was over 10 µM. For the same molecule, the TGI (HS 578T breast) was over 10 µM, the TGI (PC-3 prostate) was over 10 µM and the TGI (UACC-257 melanoma) was over 10 µM.
